The target in experiment [1] is Neuronal acetylcholine receptor subunit alpha-4 (Homo sapiens, UniProt P43681).
The target of experiment [2] is T1, Adenosine receptor A1 (Homo sapiens, UniProt P30542).
T1 sequence (P30542 whole entry): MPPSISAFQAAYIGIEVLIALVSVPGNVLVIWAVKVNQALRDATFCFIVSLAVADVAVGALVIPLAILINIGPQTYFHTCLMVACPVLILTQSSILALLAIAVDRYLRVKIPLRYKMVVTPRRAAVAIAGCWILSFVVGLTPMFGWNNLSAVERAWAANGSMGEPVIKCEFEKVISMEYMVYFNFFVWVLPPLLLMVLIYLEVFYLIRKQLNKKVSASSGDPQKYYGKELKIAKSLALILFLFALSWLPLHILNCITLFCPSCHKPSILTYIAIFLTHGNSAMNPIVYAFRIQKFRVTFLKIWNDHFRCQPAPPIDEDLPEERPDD

Experiment [3] deals with T2, Adenosine receptor A3 (Homo sapiens, UniProt P0DMS8).
T2 sequence (P0DMS8 whole entry): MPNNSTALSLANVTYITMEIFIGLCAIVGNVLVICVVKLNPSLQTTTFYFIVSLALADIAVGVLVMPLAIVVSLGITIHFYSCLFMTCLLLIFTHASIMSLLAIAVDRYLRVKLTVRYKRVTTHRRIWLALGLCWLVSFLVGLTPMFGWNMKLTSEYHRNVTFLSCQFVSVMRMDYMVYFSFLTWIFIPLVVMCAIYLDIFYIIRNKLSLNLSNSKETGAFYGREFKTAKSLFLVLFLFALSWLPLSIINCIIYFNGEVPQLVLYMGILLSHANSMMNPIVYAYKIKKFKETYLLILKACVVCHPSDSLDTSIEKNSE

Experiment [4] deals with Gamma-aminobutyric acid receptor subunit alpha-1 (Rattus norvegicus, UniProt P62813). In kind it is functional.
Sequence of Gamma-aminobutyric acid receptor subunit alpha-1 (P62813 whole entry): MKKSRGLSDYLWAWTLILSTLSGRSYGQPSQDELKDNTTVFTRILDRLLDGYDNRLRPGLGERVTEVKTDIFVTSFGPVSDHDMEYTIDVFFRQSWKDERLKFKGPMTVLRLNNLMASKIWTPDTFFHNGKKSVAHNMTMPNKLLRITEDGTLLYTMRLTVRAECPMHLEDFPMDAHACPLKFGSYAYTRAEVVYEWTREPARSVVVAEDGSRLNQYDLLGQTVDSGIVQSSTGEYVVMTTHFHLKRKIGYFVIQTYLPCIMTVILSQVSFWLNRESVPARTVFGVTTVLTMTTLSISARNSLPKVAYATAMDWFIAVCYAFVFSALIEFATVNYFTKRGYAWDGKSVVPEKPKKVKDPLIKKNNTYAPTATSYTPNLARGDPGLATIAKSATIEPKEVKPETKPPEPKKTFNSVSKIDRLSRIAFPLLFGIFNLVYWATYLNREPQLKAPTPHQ
Experiment [5] addresses T3, Prostaglandin G/H synthase 1 (Rattus norvegicus, UniProt Q63921).
T3 sequence (Q63921 whole entry): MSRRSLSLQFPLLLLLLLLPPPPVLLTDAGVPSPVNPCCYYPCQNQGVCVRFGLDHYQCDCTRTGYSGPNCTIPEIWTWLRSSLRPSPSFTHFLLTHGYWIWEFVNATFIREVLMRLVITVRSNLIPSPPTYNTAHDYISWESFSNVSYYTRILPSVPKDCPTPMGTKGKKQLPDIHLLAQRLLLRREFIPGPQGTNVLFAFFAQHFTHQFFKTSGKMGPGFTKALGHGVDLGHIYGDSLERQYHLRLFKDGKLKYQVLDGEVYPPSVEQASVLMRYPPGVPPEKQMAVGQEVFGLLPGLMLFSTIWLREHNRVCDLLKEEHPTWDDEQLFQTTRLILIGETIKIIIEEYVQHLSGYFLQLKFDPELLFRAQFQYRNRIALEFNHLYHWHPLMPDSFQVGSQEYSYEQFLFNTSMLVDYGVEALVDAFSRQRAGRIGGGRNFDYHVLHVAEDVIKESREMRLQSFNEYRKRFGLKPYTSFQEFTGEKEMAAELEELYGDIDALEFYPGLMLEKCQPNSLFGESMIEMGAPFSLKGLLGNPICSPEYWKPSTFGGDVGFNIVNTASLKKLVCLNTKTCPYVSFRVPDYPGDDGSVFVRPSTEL
In kind it is functional.

In experiment [6] the target is T4, Cholecystokinin receptor type A (Homo sapiens, UniProt P32238).
T4 sequence (P32238 whole entry): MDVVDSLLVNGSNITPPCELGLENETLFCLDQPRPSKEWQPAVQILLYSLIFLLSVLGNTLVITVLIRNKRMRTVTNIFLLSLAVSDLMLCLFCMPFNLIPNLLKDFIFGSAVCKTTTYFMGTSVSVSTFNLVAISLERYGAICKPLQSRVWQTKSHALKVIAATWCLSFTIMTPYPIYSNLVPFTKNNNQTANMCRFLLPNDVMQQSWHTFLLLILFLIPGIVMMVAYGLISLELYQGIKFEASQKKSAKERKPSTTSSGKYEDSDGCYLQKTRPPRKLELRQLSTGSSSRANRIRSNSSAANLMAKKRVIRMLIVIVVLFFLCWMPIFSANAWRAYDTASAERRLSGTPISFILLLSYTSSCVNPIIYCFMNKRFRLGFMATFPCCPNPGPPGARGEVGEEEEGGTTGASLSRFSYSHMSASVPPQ

In experiment [7] the target is T5, Type-1 angiotensin II receptor (Homo sapiens, UniProt P30556).
T5 sequence (P30556 whole entry): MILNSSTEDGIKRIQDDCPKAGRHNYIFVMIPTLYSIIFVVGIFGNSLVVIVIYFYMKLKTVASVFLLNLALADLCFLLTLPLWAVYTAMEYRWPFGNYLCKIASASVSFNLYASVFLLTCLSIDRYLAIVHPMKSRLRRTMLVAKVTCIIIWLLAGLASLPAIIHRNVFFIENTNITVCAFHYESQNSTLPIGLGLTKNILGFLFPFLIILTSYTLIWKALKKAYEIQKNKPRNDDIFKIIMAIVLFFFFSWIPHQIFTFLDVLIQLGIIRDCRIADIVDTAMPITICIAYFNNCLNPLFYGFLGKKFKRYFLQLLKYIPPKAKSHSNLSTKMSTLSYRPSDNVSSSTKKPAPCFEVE

In experiment [8] the target is Bile salt export pump (Homo sapiens, UniProt O95342). It counts as functional.
Sequence of Bile salt export pump (O95342 whole entry): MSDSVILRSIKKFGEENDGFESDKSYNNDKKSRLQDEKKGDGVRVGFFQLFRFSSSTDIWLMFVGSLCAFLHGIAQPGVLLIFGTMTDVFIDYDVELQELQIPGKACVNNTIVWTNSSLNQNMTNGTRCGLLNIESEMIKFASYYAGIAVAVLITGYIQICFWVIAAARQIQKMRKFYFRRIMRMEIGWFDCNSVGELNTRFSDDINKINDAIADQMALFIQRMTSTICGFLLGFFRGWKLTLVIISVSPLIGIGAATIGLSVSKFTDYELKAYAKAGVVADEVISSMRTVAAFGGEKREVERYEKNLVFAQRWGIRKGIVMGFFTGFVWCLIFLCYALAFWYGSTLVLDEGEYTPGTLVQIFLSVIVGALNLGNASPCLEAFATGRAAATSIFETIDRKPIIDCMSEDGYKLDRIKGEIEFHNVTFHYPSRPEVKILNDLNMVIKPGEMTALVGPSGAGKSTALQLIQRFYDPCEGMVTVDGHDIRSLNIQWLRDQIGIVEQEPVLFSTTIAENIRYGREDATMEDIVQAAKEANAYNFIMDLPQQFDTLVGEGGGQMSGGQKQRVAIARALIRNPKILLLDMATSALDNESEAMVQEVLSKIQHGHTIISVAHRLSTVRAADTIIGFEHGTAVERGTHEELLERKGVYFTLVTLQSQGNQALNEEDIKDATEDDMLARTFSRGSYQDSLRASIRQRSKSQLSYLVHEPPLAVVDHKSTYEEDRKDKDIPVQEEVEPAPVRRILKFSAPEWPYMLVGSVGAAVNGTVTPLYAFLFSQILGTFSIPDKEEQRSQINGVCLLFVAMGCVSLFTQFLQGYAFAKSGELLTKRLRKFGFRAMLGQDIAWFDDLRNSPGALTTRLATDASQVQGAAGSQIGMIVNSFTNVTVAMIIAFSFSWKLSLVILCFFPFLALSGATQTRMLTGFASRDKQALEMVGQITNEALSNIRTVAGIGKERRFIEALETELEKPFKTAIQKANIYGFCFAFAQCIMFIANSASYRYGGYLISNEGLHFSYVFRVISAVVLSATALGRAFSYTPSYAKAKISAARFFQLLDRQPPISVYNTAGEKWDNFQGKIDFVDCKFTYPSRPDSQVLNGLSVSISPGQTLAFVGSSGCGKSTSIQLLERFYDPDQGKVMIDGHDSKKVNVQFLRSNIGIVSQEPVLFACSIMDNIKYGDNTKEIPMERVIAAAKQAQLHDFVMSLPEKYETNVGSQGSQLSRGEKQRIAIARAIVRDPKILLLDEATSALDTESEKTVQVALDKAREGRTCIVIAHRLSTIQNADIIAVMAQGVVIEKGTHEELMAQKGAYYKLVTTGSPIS
Experiment [9] concerns the target T6, Muscarinic acetylcholine receptor M2 (Homo sapiens, UniProt P08172).
T6 sequence (P08172 whole entry): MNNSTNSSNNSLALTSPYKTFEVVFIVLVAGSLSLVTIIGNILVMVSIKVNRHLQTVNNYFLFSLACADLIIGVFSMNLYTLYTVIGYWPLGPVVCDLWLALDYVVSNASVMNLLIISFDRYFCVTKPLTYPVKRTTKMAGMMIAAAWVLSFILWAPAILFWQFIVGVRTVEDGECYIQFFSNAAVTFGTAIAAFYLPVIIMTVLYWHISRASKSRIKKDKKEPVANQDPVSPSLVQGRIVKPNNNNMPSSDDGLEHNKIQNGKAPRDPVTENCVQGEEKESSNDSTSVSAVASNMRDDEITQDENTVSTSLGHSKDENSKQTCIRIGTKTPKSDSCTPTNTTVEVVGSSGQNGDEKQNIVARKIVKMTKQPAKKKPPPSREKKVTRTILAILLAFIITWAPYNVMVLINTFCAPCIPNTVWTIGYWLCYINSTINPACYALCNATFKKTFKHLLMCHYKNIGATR
In kind it is functional, cell-based.

Experiment [10] has as its target Melanocortin receptor 3 (Homo sapiens, UniProt P41968).

Molecules are shown by their SMILES. Where only a bound is given, the exact number is not on record here.
Also: assay procedure not described here.

Sequence of Neuronal acetylcholine receptor subunit alpha-4 (P43681 whole entry): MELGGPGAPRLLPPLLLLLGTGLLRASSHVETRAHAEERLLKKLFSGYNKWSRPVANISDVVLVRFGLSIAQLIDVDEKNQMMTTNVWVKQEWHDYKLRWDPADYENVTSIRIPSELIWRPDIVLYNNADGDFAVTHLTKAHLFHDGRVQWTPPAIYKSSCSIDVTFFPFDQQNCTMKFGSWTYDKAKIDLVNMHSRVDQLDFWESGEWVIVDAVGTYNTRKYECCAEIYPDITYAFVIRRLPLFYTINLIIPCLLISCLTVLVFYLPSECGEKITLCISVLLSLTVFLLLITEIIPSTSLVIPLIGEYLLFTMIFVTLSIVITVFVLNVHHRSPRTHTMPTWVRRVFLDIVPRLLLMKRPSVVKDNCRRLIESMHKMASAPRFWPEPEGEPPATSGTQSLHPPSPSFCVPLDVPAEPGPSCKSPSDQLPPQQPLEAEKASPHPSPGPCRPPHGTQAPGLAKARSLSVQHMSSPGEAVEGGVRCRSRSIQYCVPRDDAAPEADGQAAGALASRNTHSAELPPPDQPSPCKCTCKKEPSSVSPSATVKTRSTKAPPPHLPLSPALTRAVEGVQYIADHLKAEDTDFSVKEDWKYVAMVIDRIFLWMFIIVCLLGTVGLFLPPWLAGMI
Sequence of Melanocortin receptor 3 (P41968 whole entry): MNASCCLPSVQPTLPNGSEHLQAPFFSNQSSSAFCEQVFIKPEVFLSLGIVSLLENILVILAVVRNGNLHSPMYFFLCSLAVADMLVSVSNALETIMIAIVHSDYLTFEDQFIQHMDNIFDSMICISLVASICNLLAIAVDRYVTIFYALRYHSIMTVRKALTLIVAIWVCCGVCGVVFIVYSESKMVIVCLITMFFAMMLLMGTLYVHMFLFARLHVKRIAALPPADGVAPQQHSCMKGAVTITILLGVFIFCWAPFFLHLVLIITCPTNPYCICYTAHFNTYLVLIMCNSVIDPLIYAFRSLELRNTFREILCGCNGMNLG

One may read the AC50 as the midpoint of the concentration-response curve, whichever way the signal moves. Turning to `N[C@@H](C(=O)N[C@@H]1C(=O)N2C(C(=O)O)=C(Cl)CS[C@H]12)c1ccccc1` [CEFACLOR ANHYDROUS], the half-maximal activity concentration (AC50) in experiment [1] was > 30 µM; in [2], > 30 µM; in [3], 24 µM; in experiment [4], > 30 µM; in experiment [5], > 30 µM; in experiment [6], > 30 µM. The half-maximal activity concentration (AC50) is > 30 µM in experiment [7], > 300 µM in experiment [8], > 30 µM in experiment [9] and > 30 µM in [10].

With `Nc1nc(N)c2nc(-c3ccccc3)c(N)nc2n1`, the AC50 in experiment [1], in experiment [2], in experiment [3], in experiment [4], in [5] and in experiment [6] was > 30 µM each time. Also, the half-maximal activity concentration (AC50) in experiment [7] is > 30 µM; in [8] it was > 300 µM; in [9], > 30 µM; in experiment [10], > 30 µM.

Consider `CC(C)Cc1ccc(CC(=O)O)cc1` [IBUFENAC], for which the AC50 in [1], in experiment [2], in [3], in experiment [4], in experiment [5] and in experiment [6] was > 30 µM each time. The AC50 in experiment [7] is > 30 µM; in [8], > 300 µM; in experiment [9] it was > 30 µM; in experiment [10], > 30 µM.

Regarding `C[C@H]1O[C@H](O[C@H]2[C@H](O)[C@@H](O)[C@@H](O[C@H]3[C@H](O)[C@@H](O)C(O)O[C@@H]3CO)O[C@@H]2CO)[C@H](O)[C@@H](O)[C@@H]1N[C@H]1C=C(CO)[C@@H](O)[C@H](O)[C@H]1O` (stereo not given in full) [ACARBOSE], the AC50 is > 30 µM in [1]; > 30 µM in experiment [2]; > 30 µM in experiment [3]; > 10 µM in experiment [4]; > 30 µM in [5]; > 30 µM in experiment [6]. Moreover, the AC50 is > 30 µM in [7], > 300 µM in [8], > 10 µM in experiment [9] and > 30 µM in experiment [10].

Consider `Cc1ccc(C(=O)c2cc(O)c(O)c([N+](=O)[O-])c2)cc1` [TOLCAPONE], for which the AC50 in experiment [1] was > 10 µM; in experiment [2] it was 15.6 µM; in experiment [3], 11.9 µM; in experiment [4] it was > 10 µM; in experiment [5] it was 12.7 µM; in [6], > 10 µM. Also, the half-maximal activity concentration (AC50) in [7] is > 10 µM; in experiment [8], 30.3 µM; in experiment [9], > 10 µM; in experiment [10], > 10 µM.

With `CS(=O)(=O)c1ccc([C@@H](O)[C@@H](CO)NC(=O)C(Cl)Cl)cc1` [THIAMPHENICOL], the concentration at half-maximal activity (AC50) in experiment [1], in experiment [2], in experiment [3], in experiment [4], in experiment [5] and in experiment [6] was > 30 µM throughout. Further, the AC50 is > 30 µM in experiment [7], > 300 µM in [8], > 30 µM in [9] and > 30 µM in experiment [10].

As for `CCOC(=O)[C@H](CCc1ccccc1)N[C@@H](C)C(=O)N1CCC[C@H]1C(=O)O`, the AC50 is > 10 µM in [1]; > 30 µM in [2]; > 30 µM in experiment [3]; > 10 µM in [4]; > 30 µM in experiment [5]; > 30 µM in experiment [6]. Besides, the concentration at half-maximal activity (AC50) in experiment [7] is > 30 µM; in [8], > 300 µM; in [9], > 10 µM; in [10], > 30 µM.

Turning to `NC(=O)c1ncn([C@@H]2O[C@H](CO)[C@@H](O)[C@H]2O)c1O` [MIZORIBINE], the AC50 in experiment [1] is > 30 µM; in experiment [2] it was > 30 µM; in experiment [3], > 30 µM; in experiment [4], > 10 µM; in experiment [5] it was > 30 µM; in experiment [6] it was > 30 µM. Further, the AC50 in [7] is > 30 µM; in experiment [8], > 300 µM; in [9] it was > 30 µM; in experiment [10], > 30 µM.

In the case of `C[C@@H]1O[C@@H]1P(=O)(O)O` [FOSFOMYCIN], the AC50 in [1], in experiment [2], in [3], in experiment [4], in [5] and in experiment [6] was > 10 µM each time. The half-maximal activity concentration (AC50) in experiment [7] is > 10 µM; in experiment [8], > 300 µM; in experiment [9], > 10 µM; in [10], > 10 µM.

Take `NC[C@H]1CC[C@H](C(=O)O)CC1` [TRANEXAMIC ACID]: the half-maximal activity concentration (AC50) in [1], in experiment [2], in [3], in [4], in [5] and in experiment [6] was > 10 µM in each case. The AC50 in experiment [7] was > 10 µM; in [8], > 300 µM; in experiment [9] it was > 10 µM; in experiment [10], > 10 µM.

As for `CC(C)NCC(O)COc1ccc(COCCOC(C)C)cc1` (stereo not given) [BISOPROLOL], the AC50 in experiment [1] was > 10 µM; in experiment [2] it was > 30 µM; in [3] it was > 30 µM; in [4], > 10 µM; in experiment [5], > 30 µM; in experiment [6], > 30 µM. Moreover, the concentration at half-maximal activity (AC50) in [7] is > 30 µM; in experiment [8], > 300 µM; in experiment [9], > 10 µM; in [10] it was > 30 µM.

As to `C[C@H]1C[C@@H]2[C@H]([C@@H](O)C[C@@]3(C)[C@H]2CC[C@]3(O)C(=O)CO)[C@@]2(C)C=CC(=O)C=C12` [METHYLPREDNISOLONE], the AC50 in [1], in experiment [2], in experiment [3], in experiment [4], in experiment [5] and in experiment [6] was > 10 µM throughout. The concentration at half-maximal activity (AC50) in experiment [7] was > 10 µM; in [8], 140 µM; in experiment [9] it was > 10 µM; in [10] it was > 10 µM.

The values are drawn from ChEMBL document CHEMBL5291721, “A preclinical secondary pharmacology resource illuminates target-adverse drug reaction associations of marketed drugs” (Nat Commun, 2023).
